Data on 16 molecules can be found in patent publication US20250171457A1, “NITROGEN-CONTAINING HETEROCYCLIC COMPOUND HAVING NRF2 ACTIVATION EFFECT” (CHUGAI SEIYAKU KABUSHIKI KAISHA, priority 2022, published 2025).

pEC50: −log10 of the molar value.

In this experiment the test system is Nrf2 transcriptional activity (pARE-Luc reporter) in HepG2 cells. Briefly: In vitro Nrf2 transcriptional activity measurement by ARE-dependent reporter assay in HepG2 cell. It counts as cell-based, human. The following applies: Homo sapiens; HepG2 cells transfected with pARE-Luc, 4 hours at 37° C.; luciferase activity of Example 1-54 or Example 17-23 at 3.75 μM defined as 100%. As for the experimental part: Test Example 1: In Vitro Nrf2 Transcriptional Activity Measurement by ARE-Dependent Reporter Assay in HepG2 Cell
A human liver cancer-derived cell line HepG2 was transfected with pGL4.37 vector (pARE-Luc, Promega Corp.) and incubated overnight at 37° C. in a humidified atmosphere containing 5% CO2. The cells were dissociated by trypsin treatment, inoculated to a 384-well plate supplemented with a test compound, and incubated at 37° C. for 4 hours. Then, Bright-Glo Reagent (Promega Corp.) was added to the plate, and luciferase activity was measured with Envision plate reader.
Luciferase activity obtained through the action of the compound of Example 1-54 or Example 17-23 at a concentration of 3.75 μM was defined as 100%. The luciferase activity of each well was converted to a response rate (%). The dose-response curve of the compound of each Example was prepared to calculate a 50% effective concentration (EC50).
(In general: In a reporter assay the amount or activity of a reporter protein is the signal.)
As usually defined, the pEC50 is the EC50 on a negative log10 scale, so that one unit is a factor of ten. `O=C(O)c1cc(F)c(-c2cccc3c2OCN(C(=O)c2c(Cl)cc(N4CC(O)(c5ccccc5)C4)cc2Cl)C3)cc1N1C2CCC1COC2` [Compound 1-16, 4-[3-[2,6-Dichloro-4-(3-hydroxy-3-phenylazetidin-1-yl)benzoyl]-2,4-dihydro-1,3-benzoxazin-8-yl]-5-fluoro-2-(3-oxa-8-azabicyclo[3.2.1]octan-8-yl)benzoic acid] gave a pEC50 of 7.96.
The value for `O=C(O)c1cc(F)c(-c2cccc3c2OCN(C(=O)c2c(Cl)cc(N4CC(O)C4)cc2Cl)C3)cc1N1C2CCC1COC2` [Compound 1-17, 4-[3-[2,6-Dichloro-4-(3-hydroxyazetidin-1-yl)benzoyl]-2,4-dihydro-1,3-benzoxazin-8-yl]-5-fluoro-2-(3-oxa-8-azabicyclo[3.2.1]octan-8-yl)benzoic acid] was 7.72.
The value for `O=C(O)c1cc(F)c(-c2cccc3c2OCN(C(=O)c2c(Cl)cc(N4CC(F)(F)C4)cc2Cl)C3)cc1N1C2CCC1COC2` [Compound 1-19, 4-[3-[2,6-Dichloro-4-(3,3-difluoroazetidin-1-yl)benzoyl]-2,4-dihydro-1,3-benzoxazin-8-yl]-5-fluoro-2-(3-oxa-8-azabicyclo[3.2.1]octan-8-yl)benzoic acid] was 8.20; that for `O=C(O)c1cc(F)c(-c2cccc3c2OCN(C(=O)c2c(Cl)cc(N4CC(F)C4)cc2Cl)C3)cc1N1C2CCC1COC2` [Compound 1-20, 4-[3-[2,6-Dichloro-4-(3-fluoroazetidin-1-yl)benzoyl]-2,4-dihydro-1,3-benzoxazin-8-yl]-5-fluoro-2-(3-oxa-8-azabicyclo[3.2.1]octan-8-yl)benzoic acid] was 8.49; that for `CO[C@@H]1COC2(C1)CN(c1cc(Cl)c(C(=O)N3COc4c(cccc4-c4cc(N5C6CCC5COC6)c(C(=O)O)cc4F)C3)c(Cl)c1)C2` [Compound 1-22, 4-[3-[2,6-Dichloro-4-[(7S)-7-methoxy-5-oxa-2-azaspiro[3.4]octan-2-yl]benzoyl]-2,4-dihydro-1,3-benzoxazin-8-yl]-5-fluoro-2-(3-oxa-8-azabicyclo[3.2.1]octan-8-yl)benzoic acid] was 8.68.
Turning to `CO[C@H]1COC2(C1)CN(c1cc(Cl)c(C(=O)N3COc4c(cccc4-c4cc(N5C6CCC5COC6)c(C(=O)O)cc4F)C3)c(Cl)c1)C2` [Compound 1-23, 4-[3-[2,6-Dichloro-4-[(7R)-7-methoxy-5-oxa-2-azaspiro[3.4]octan-2-yl]benzoyl]-2,4-dihydro-1,3-benzoxazin-8-yl]-5-fluoro-2-(3-oxa-8-azabicyclo[3.2.1]octan-8-yl)benzoic acid], the negative logarithm of the EC50 (pEC50) was 8.72.
The value for `CO[C@H]1C[C@@]2(CN(c3cc(Cl)c(C(=O)N4COc5c(cccc5-c5cc(N6C7CCC6COC7)c(C(=O)O)cc5F)C4)c(Cl)c3)[C@@H]2C)C1` [Compound 1-24, 4-[3-[2,6-Dichloro-4-[(1R,4r,6R)-6-methoxy-1-methyl-2-azaspiro[3.3]heptan-2-yl]benzoyl]-2,4-dihydro-1,3-benzoxazin-8-yl]-5-fluoro-2-(3-oxa-8-azabicyclo[3.2.1]octan-8-yl)benzoic acid] was 8.85.
With `CO[C@H]1C[C@@]2(CN(c3cc(Cl)c(C(=O)N4COc5c(cccc5-c5cc(N6C7CCC6COC7)c(C(=O)O)cc5F)C4)c(Cl)c3)[C@H]2C)C1` [Compound 1-25, 4-[3-[2,6-Dichloro-4-[(1S,4r,6S)-6-methoxy-1-methyl-2-azaspiro[3.3]heptan-2-yl]benzoyl]-2,4-dihydro-1,3-benzoxazin-8-yl]-5-fluoro-2-(3-oxa-8-azabicyclo[3.2.1]octan-8-yl)benzoic acid] the figure was 8.82.
The molecule `CO[C@H]1C[C@]2(CN(c3cc(Cl)c(C(=O)N4COc5c(cccc5-c5cc(N6C7CCC6COC7)c(C(=O)O)cc5F)C4)c(Cl)c3)[C@@H]2C)C1` [Compound 1-26, 4-[3-[2,6-Dichloro-4-[(1R,4s,6S)-6-methoxy-1-methyl-2-azaspiro[3.3]heptan-2-yl]benzoyl]-2,4-dihydro-1,3-benzoxazin-8-yl]-5-fluoro-2-(3-oxa-8-azabicyclo[3.2.1]octan-8-yl)benzoic acid] gave a pEC50 of 8.85.
As to `CO[C@H]1C[C@]2(CN(c3cc(Cl)c(C(=O)N4COc5c(cccc5-c5cc(N6C7CCC6COC7)c(C(=O)O)cc5F)C4)c(Cl)c3)[C@H]2C)C1` [Compound 1-27, 4-[3-[2,6-Dichloro-4-[(1S,4s,6R)-6-methoxy-1-methyl-2-azaspiro[3.3]heptan-2-yl]benzoyl]-2,4-dihydro-1,3-benzoxazin-8-yl]-5-fluoro-2-(3-oxa-8-azabicyclo[3.2.1]octan-8-yl)benzoic acid], the negative logarithm of the EC50 (pEC50) was 8.54.
Molecule `CO[C@@H]1CCOC12CN(c1cc(Cl)c(C(=O)N3COc4c(cccc4-c4cc(N5C6CCC5COC6)c(C(=O)O)cc4F)C3)c(Cl)c1)C2` [Compound 1-30, 4-[3-[2,6-Dichloro-4-[(8R)-8-methoxy-5-oxa-2-azaspiro[3.4]octan-2-yl]benzoyl]-2,4-dihydro-1,3-benzoxazin-8-yl]-5-fluoro-2-(3-oxa-8-azabicyclo[3.2.1]octan-8-yl)benzoic acid] had a pEC50 of 8.59.
With `CO[C@H]1CCOC12CN(c1cc(Cl)c(C(=O)N3COc4c(cccc4-c4cc(N5C6CCC5COC6)c(C(=O)O)cc4F)C3)c(Cl)c1)C2` [Compound 1-31, 4-[3-[2,6-Dichloro-4-[(8S)-8-methoxy-5-oxa-2-azaspiro[3.4]octan-2-yl]benzoyl]-2,4-dihydro-1,3-benzoxazin-8-yl]-5-fluoro-2-(3-oxa-8-azabicyclo[3.2.1]octan-8-yl)benzoic acid] the figure was 8.72; with `O=C(O)c1cc(F)c(-c2cccc3c2OCN(C(=O)c2c(Cl)cc(N4CCNC(C(F)(F)F)C4)cc2Cl)C3)cc1N1C2CCC1COC2` (stereo not shown) [Compound 1-32, 4-[3-[2,6-Dichloro-4-[3-(trifluoromethyl)piperazin-1-yl]benzoyl]-2,4-dihydro-1,3-benzoxazin-8-yl]-5-fluoro-2-(3-oxa-8-azabicyclo[3.2.1]octan-8-yl)benzoic acid], 8.82; with `CN1CCN(c2cc(Cl)c(C(=O)N3COc4c(cccc4-c4cc(N5C6CCC5COC6)c(C(=O)O)cc4F)C3)c(Cl)c2)CC12COC2` [Compound 1-34, 4-[3-[2,6-Dichloro-4-(5-methyl-2-oxa-5,8-diazaspiro[3.5]nonan-8-yl)benzoyl]-2,4-dihydro-1,3-benzoxazin-8-yl]-5-fluoro-2-(3-oxa-8-azabicyclo[3.2.1]octan-8-yl)benzoic acid], 7.41.
With `O=C(O)c1cc(F)c(-c2cccc3c2OCN(C(=O)c2c(Cl)cc(N4CCN(CC(F)(F)F)CC4)cc2Cl)C3)cc1N1C2CCC1COC2` [Compound 1-35, 4-[3-[2,6-Dichloro-4-[4-(2,2,2-trifluoroethyl)piperazin-1-yl]benzoyl]-2,4-dihydro-1,3-benzoxazin-8-yl]-5-fluoro-2-(3-oxa-8-azabicyclo[3.2.1]octan-8-yl)benzoic acid] the figure was 8.24; with `CN1CC2CCCC(C1)N2c1cc(Cl)c(C(=O)N2COc3c(cccc3-c3cc(N4C5CCC4COC5)c(C(=O)O)cc3F)C2)c(Cl)c1` [Compound 1-36, 4-[3-[2,6-Dichloro-4-(3-methyl-3,9-diazabicyclo[3.3.1]nonan-9-yl)benzoyl]-2,4-dihydro-1,3-benzoxazin-8-yl]-5-fluoro-2-(3-oxa-8-azabicyclo[3.2.1]octan-8-yl)benzoic acid], 8.74.
